According to patent publication US6451336B2, “Method for increasing brown fat, comprising administering conjugated linoleic acid as active ingredient” (Rinoru Oil Mills Co., Ltd., priority 1999, dated 2002):

Tests used:
[1] = Feeding of 1.0% CLA diet to rats for four weeks: growth and weight of organs; assay type: in vivo, Sprague-Dawley male rats; conditions: 1.0% CLA in diet, 4 weeks
Text: (§1) Sprague-Dawley male rats of four weeks of age were pre-bred, and then divided into two groups (each group consisting of 8 rats), a 1.0% linoleic acid group (a control group) and a 1.0% CLA group. The experimental diet shown in Table 1 and water were then freely fed to these two groups of rats. […] Four weeks after the initiation of feeding, the 8 rats constituting each group were sacrificed, and the organs were taken out.

[2] = tested on: carnitine palmitoyltransferase (CPT); assay: Carnitine palmitoyltransferase (CPT) activity in brown adipose tissues of rats fed CLA; assay type: in vivo, Sprague-Dawley male rats; conditions: 1.0% CLA in diet, 4 weeks
Text: as §1
Further, the activity of carnitine palmitoyltransferase (CPT) as a rate-determining enzyme in β-oxidation of fatty acids was measured in brown adipose tissues.

Food intake, in words, compared with 1.0% linoleic acid control group [1]: without affecting | Weight of organs: Brain [1]: 0.38 g/100 g body weight | Weight of organs: Heart [1]: 0.36 g/100 g body weight | Weight of organs: Kidney [1]: 0.78 g/100 g body weight | Weight of organs: Liver [1]: 4.40 g/100 g body weight | Weight of organs: Lung [1]: 0.40 g/100 g body weight | Weight of organs: Spleen [1]: 0.22 g/100 g body weight | Weight of tissues of liver, kidney, heart, lungs, spleen and brain, in words, compared with control group [1]: no difference | Food intake ([1]; free feeding): 21.0 g/day
Substance: conjugated linoleic acid [CLA]
Weight gain, in words, compared with 1.0% linoleic acid control group [1]: without affecting | Weight of adipose tissues around the kidney (white adipose tissues), in words, compared with control group [1]: significantly decreased | Weight of brown adipose tissues in the back, in words, compared with control group [1]: significantly increased | Weight of organs: Brown adipose tissue [1]: 0.21 g/100 g body weight | Weight of organs: Epididymal adipose tissue [1]: 1.17 g/100 g body weight | Weight gain ([1]; free feeding): 227 g/4 weeks | Weight of organs: Peri-renal adipose tissue ([1]; white adipose tissue): 1.16 g/100 g body weight | Activity of carnitine palmitoyltransferase (CPT) in brown adipose tissues, in words, compared with control group [2]: higher
